Here are results for two compounds from patent US20260009799A1, “CA-IX TARGETING FLUORESCENT PROBES” (BRACCO IMAGING S.P.A., priority 2022, published 2026).

Series [1] deals with T1, CA-IX expressing HT-29 cells (Homo sapiens, UniProt Q16790).
T1 construct: CA-IX, expressed in its physiological environment at the cell-surface; host or cells: HT-29 human colorectal adenocarcinoma cells
Put plainly: Cellular binding assessment by flow cytometry. The note with it: for Kd: HT-29 cells, 1 hour 30 min on ice, flow cytometry, read-out: CA-IX receptor affinity (KD, nM to HT-29 cells); for KD to HT-29 cells, fold lower than corresponding Reference compound: compound 1 vs Reference 2, compound 2 vs Reference 3; for KD to HT-29 cells compared with Reference 1 (HF-1): versus Reference 1 (HF-1). How it is done:
Human colon adenocarcinoma HT-29 cells (ATCC) used for the cellular binding experiments were cultured in McCoy's 5A medium (Sigma-Aldrich), supplemented with 10% HyClone Fetal Clone III (Euroclone), 2 mM L-glutamine (Sigma-Aldrich), 100 IU/mL penicillin, 0.1 mg/mL streptomycin, 0.25 μg/mL amphotericin B (Antibiotic-Antimycotic solution, Life Technologies) and cells were grown at 37° C. in humidified atmosphere enriched with 5% CO2. DPBS without MgCl2 and CaCl2) (Sigma-Aldrich) was used for cell rinsing.
Indeed, by using the anti-human CA-IX antibody MAB2188 (R&D Systems) and the DAKO […], according to the instruction of the datasheet, HT-29 cells were estimated to express about 150,000 CA-IX molecules per cell. Thus, HT-29 cells were used to measure the binding of all compounds to CA-IX, expressed in its physiological environment at the cell-surface. Briefly, HT-29 cells were detached with StemPro® Accutase® Cell Dissociation Reagent (Life Technologies), collected in DPBS and counted. At least 2·10^5 HT-29 cells were placed in 1.5 mL tubes on ice and resuspended in 50-100 μL of cold FACS buffer (eBioscience™ Flow Cytometry Staining Buffer, Invitrogen) containing scalar concentrations of compounds (HF-1, reference 2, and compound 1: range 0-20 μM; reference 3: range 0-24 μM; compound 2: range 0-10 μM). After incubation (1 hour and 30 min on ice in the dark), cells were rinsed 3 times in 300 μL of cold FACS buffer by centrifugation (5 min, 4° C., 350 RCF), discarding the supernatant. Cell pellets were then resuspended in 200 μL of cold FACS buffer (or in an adequate volume in order to obtain no more than 1000 recorded events per μL during FACS analysis) and analyzed with the flow cytometer Accuri™ C6 (BD Biosciences). The mean cell-associated fluorescence was plotted against concentration and the dissociation constant at equilibrium (KD) was inferred by mathematical fitting with GraphPad Prism v.9 software, according to the following equation: […]
where Bmax is the maximum specific binding in the same units as Y; KD is the equilibrium dissociation constant, in the same units as X; NS is the slope of nonspecific binding in Y units divided by X units; and background is the amount of nonspecific binding with no added Compound.
All compounds were analyzed in at least three independent experiments.
Background: A flow cytometer gives signals particle by particle.

In series [2] the target is T2, human serum albumin (HSA) (Homo sapiens, UniProt P02768).
T2 construct: purchased Sigma-Aldrich A9511
Put plainly: Binding to albumin (ultrafiltration, absorbance of filtrates). The note with it: 4.76 μM probe in PBS, 10 KDa cut off ultrafiltration, 25° C.; read-out: HSA affinity (KA, M^−1) (converted). The series is classed as in vitro ADME. As for the experimental part: The affinity of the probes for human serum albumin (HSA) was determined to assess the influence of structural features on their albumin binding properties. Briefly, HSA (A9511, Sigma-Aldrich) was prepared in a […] stock solution in PBS and used to obtain a series of dilutions in PBS (0, 9.52·10^−7, 4.76·10^−6, 9.52·10^−6, 1.90·10^−5, 3.81·10^−5, 5.71·10^−5, 9.52·10^−5, 1.43·10^−4, 1.90·10^−4, 2.86·10^−4, 3.81·10^−4 M), in presence of 4.76 μM of the CA-IX-targeting probe (prepared from a 50 μM stock solution in PBS), in a total volume of 0.525 mL. The samples were centrifuged (10000 g for 30 min at 25° C.) in a Microcon device (10 KDa MW cut off, Amicon Ultra-0.5 Centrifugal Filter Unit with Ultracel-10 membrane) and the absorbance measurements of the filtrates were obtained with the spectrophotometer at the maximum absorbance wavelength of the fluorophore.
Data analysis was performed by fitting the raw data, using Microsoft Excel Solver, with the equation:
where ΔA/b=Absorbance measured (b=1 cm), KRL=KA calculated by fitting, Δε·Rt are calculated by fitting, and [L]=HSA concentration. ΔA/b values were experimentally obtained by subtracting the absorbance of “0 HSA sample” to the absorbance of each other sample.

Series [3] relates to hypoxic HT-29 colorectal tumor, subcutaneously induced. The series can be described thus: In vivo tumor optical imaging (IVIS Spectrum), tumor-to-background ratio. The arrangement: species or system mice. The note with it: 24 hours after intravenous administration, 1 nmol/mouse, tumor vs hind limb muscle. As for the experimental part: HT-29 cells were collected and washed once with serum-free medium. Five million HT-29 cells were suspended in 0.1 mL serum-free medium and injected subcutaneously in the right flank of 5 weeks old mice. Tumor development was followed by caliper measurement twice a week, from 7 days after inoculation. Tumor volume was calculated according to the formula: (L*W2)/2, where L and W are the maximum length and width of the tumor.
Optical Imaging experiments on HT-29 tumor bearing animals were performed after administration of Reference 1, 2 and 3, and compounds 1 and 2, all at a dose of 1 nmol/mouse in an administration volume of 0.1 mL (corresponding to about 5 mL/kg, considering a 20 g-mouse) at an injection rate of about 1 mL/min, by the IVIS Spectrum system when the tumor reached at least 200 mm^3 volume. For each group, in vivo OI experiments were performed at 0.5, 1, 2, 3, 4, 6 and 24 hours after intravenous administration of the fluorescent compounds. During imaging experiments animals were maintained under gaseous anesthesia. Regions of interest (ROIs) were drawn on the tumor and on a reference background healthy region (hind limb muscle) of the mouse for each fluorescence image at every time point to evaluate signal intensity in the tissues (expressed as Average Radiant Efficiency). The ratio between the fluorescence signal in the tumor and in the background healthy tissue (tumor-to-background ratio, TBR) was then calculated to assess the contrast.
All the compounds of the invention and the References were tested at a dose of 1 nmol/mouse.

The nature of series [4]: Optical characterization (excitation/emission maxima, molar extinction coefficient). The note with it: in water. The series is classed as physicochemical.
Series [5] concerns the target recombinant bovine CA-II enzyme (bCAII) (Bos taurus, UniProt P00921). The series can be described thus: Fluorescence-based dansylamide (DNSA) displacement assay on carbonic anhydrase catalytic site. The note with it: for KD for bCAII, times lower than corresponding reference compound bearing the same cyanine dye: compound 1 vs Reference 2, compound 2 vs Reference 3.

SMILES strings stand for the structures.

Sequence of recombinant bovine CA-II enzyme (bCAII) (P00921 whole entry): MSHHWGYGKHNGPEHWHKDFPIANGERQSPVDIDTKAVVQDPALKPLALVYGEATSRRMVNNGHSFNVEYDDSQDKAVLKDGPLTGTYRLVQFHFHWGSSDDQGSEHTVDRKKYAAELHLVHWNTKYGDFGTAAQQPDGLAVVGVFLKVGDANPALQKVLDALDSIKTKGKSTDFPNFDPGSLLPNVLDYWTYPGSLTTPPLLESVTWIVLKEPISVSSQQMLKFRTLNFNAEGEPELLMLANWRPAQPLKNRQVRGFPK
T2 sequence (P02768 25-609): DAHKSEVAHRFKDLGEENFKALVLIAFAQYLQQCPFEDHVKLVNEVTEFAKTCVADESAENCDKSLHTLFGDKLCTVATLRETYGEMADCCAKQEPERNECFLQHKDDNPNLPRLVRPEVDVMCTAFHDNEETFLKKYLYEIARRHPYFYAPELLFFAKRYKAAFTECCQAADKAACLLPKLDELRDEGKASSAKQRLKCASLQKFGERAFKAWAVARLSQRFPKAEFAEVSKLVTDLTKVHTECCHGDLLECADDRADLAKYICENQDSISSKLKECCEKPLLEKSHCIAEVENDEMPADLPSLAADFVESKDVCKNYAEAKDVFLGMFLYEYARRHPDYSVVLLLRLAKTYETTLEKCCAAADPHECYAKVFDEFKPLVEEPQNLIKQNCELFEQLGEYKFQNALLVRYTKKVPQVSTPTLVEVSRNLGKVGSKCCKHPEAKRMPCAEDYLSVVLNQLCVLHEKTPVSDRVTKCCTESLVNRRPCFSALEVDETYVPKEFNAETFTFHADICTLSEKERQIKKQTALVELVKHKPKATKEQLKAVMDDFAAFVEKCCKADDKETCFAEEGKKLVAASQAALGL

Regarding `CC1(C)C(/C=C/C2=C(Oc3ccc(S(=O)(=O)O)cc3)C(=C/C=C3/N(CCCCCC(=O)NCCCCCCCC(=O)Nc4nnc(S(N)(=O)=O)s4)c4ccc(C(=O)NC[C@H](O)[C@@H](O)[C@H](O)[C@H](O)CO)cc4C3(C)C)/CCC2)=[N+](CCCCS(=O)(=O)[O-])c2ccc(C(=O)NC[C@H](O)[C@@H](O)[C@H](O)[C@H](O)CO)cc21` [Compound 1], in series [1], the Kd is 174 ± 15 nM; the “KD to HT-29 cells, fold lower than corresponding Reference compound” value turned out to be 2 fold; the “KD to HT-29 cells compared with Reference 1 (HF-1)” value is “rather comparable”. Further, in series [2], the Kd was 80000 nM. In addition, in series [3], the “in vivo TBR (mean ± SD)” value was 5.2 ± 1.0. The compound further displayed a molar extinction coefficient (ε) in series [4] of 250000 M⁻¹ cm⁻¹. Moreover, in series [5], the Kd amounted to 13.5 ± 1.6 nM and the “KD for bCAII, times lower than corresponding reference compound bearing the same cyanine dye” value is on record as 4 times.

As to `CC(CC[N+]1=C(/C=C/C=C/C=C/C=C2/N(CCCCCC(=O)NCCCCCCCC(=O)Nc3nnc(S(N)(=O)=O)s3)c3ccc(C(=O)NC[C@H](O)[C@@H](O)[C@H](O)[C@H](O)CO)cc3C2(C)C)C(C)(C)c2cc(C(=O)NC[C@H](O)[C@@H](O)[C@H](O)[C@H](O)CO)ccc21)S(=O)(=O)[O-]` (stereo partly shown) [Compound 2], in series [1], the Kd was determined as 58 ± 9 nM; the “KD to HT-29 cells, fold lower than corresponding Reference compound” value was “more than 4 fold”; the “KD to HT-29 cells compared with Reference 1 (HF-1)” value came to 2 fold. The Kd in series [2] was 105000 nM. Moreover, the “in vivo TBR (mean ± SD)” value in series [3] came to 10.1 ± 3.1. This compound had a molar extinction coefficient (ε) in series [4] of 250000 M⁻¹ cm⁻¹. Moreover, in series [5], the Kd stood at 6.1 ± 1.6 nM and the “KD for bCAII, times lower than corresponding reference compound bearing the same cyanine dye” value turned out to be 5 times.
